Results as given in BindingDB's records for patent US20240246984 (Beijing Innocare Pharma Tech, 2024).

Experiments:
[1] = target: Tyrosine-protein kinase JAK2 (Homo sapiens, UniProt O60674); assay: JAK2 Activity Inhibition Assay
Protocol: The enzymatic activity of JAK2 was assessed by detecting the substrate phosphorylation level in a kinase reaction with a homogeneous time-resolved fluorescence (HTRF) kinase detection kit (Cisbio, 62TK0PEC). A reaction buffer contained an enzyme buffer (1×), 5 mM MgCl2, 1 mM DTT and 0.01% Brij35 from the kit; a human recombinant JAK2 protein (Carna Biosciences, 08-045) was diluted to a kinase reaction solution of 0.15 ng/μL with the reaction buffer; a substrate reaction solution contained 2.5 μM ATP and a biotin-labeled tyrosine kinase substrate diluted to 0.25 μM with the reaction buffer; a detection buffer contained 0.1 ng/μL Eu3+ labeled cage antibody (Cisbio, 61T66KLB) and 12.5 nM streptavidin-labeled XL665 (Cisbio, 610SAXLB) in the reaction buffer; the compound was dissolved to 10 μM in DMSO, followed by a serial 4-fold dilution with DMSO to a minimum concentration of 0.061 nM. Each concentration was further diluted 40-fold with the reaction buffer. To a 384-well assay plate (Corning, 3674) were added 4 μL of the compound solutions having a series of concentrations and 2 μL of JAK2 kinase reaction solutions. […] An Envision plate reader (Perkin Elmer) was then used to measure the progress of the reaction at wavelengths of 620 nm and 665 nm.

[2] = target: Non-receptor tyrosine-protein kinase TYK2 (Homo sapiens, UniProt P29597); assay: TYK2 Activity Inhibition Assay
Protocol: The enzymatic activity of TYK2 was assessed by detecting the substrate phosphorylation level in a kinase reaction with a homogeneous time-resolved fluorescence (HTRF) kinase detection kit (Cisbio, 62TK0PEC). A reaction buffer contained an enzyme buffer (1×), 5 mM MgCl2, 1 mM DTT and 0.01% Brij35 from the kit; a human recombinant TYK2 protein (Carna Biosciences, 08-147) was diluted to a kinase reaction solution of 0.25 ng/μL with the reaction buffer; a substrate reaction solution contained 11.25 μM ATP and a biotin-labeled tyrosine kinase substrate diluted to 0.5 μM with the reaction buffer; a detection buffer contained 0.1 ng/μL Eu3+ labeled cage antibody (Cisbio, 61T66KLB) and 25 nM streptavidin-labeled XL665 (Cisbio, 610SAXLB) in the reaction buffer; the compound was dissolved to 10 μM in DMSO, followed by a serial 4-fold dilution with DMSO to a minimum concentration of 0.061 nM. Each concentration was further diluted 40-fold with the reaction buffer. To a 384-well assay plate (Corning, 3674) were added 4 μL of the compound solutions having a series of concentrations and 2 μL of kinase reaction solutions. After being mixed evenly, the mixtures were incubated at room temperature for 15 minutes, and then 4 μL of the substrate reaction solutions were added.

Sequence of Tyrosine-protein kinase JAK2 (O60674 whole entry): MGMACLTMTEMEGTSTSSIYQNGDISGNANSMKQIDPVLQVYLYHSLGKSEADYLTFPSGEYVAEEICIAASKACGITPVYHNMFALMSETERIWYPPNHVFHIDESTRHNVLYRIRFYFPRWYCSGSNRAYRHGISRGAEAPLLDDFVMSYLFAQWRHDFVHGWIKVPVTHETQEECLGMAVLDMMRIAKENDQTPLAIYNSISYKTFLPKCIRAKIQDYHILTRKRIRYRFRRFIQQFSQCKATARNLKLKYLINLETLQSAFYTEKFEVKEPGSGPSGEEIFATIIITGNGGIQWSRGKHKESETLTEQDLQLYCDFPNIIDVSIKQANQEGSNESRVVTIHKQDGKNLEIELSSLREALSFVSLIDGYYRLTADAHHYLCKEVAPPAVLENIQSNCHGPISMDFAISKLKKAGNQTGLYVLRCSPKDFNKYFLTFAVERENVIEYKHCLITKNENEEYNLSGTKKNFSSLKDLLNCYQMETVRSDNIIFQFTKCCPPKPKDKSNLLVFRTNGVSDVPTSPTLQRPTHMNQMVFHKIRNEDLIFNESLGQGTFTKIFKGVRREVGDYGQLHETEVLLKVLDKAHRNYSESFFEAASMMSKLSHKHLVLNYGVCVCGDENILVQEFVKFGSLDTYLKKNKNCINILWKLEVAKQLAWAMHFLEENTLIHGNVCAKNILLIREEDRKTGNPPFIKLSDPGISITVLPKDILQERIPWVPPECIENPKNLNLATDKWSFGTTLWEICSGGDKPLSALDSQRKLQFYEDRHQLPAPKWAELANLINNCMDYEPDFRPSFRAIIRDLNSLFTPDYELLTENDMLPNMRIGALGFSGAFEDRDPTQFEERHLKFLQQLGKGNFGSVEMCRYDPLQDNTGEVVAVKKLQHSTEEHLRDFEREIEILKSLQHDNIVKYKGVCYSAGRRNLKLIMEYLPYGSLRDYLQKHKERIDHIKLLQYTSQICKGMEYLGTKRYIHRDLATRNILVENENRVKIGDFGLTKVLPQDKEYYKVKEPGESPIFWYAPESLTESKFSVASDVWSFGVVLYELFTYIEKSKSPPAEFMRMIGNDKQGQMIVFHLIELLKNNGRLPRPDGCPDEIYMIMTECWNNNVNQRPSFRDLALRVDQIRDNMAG
Sequence of Non-receptor tyrosine-protein kinase TYK2 (P29597 whole entry): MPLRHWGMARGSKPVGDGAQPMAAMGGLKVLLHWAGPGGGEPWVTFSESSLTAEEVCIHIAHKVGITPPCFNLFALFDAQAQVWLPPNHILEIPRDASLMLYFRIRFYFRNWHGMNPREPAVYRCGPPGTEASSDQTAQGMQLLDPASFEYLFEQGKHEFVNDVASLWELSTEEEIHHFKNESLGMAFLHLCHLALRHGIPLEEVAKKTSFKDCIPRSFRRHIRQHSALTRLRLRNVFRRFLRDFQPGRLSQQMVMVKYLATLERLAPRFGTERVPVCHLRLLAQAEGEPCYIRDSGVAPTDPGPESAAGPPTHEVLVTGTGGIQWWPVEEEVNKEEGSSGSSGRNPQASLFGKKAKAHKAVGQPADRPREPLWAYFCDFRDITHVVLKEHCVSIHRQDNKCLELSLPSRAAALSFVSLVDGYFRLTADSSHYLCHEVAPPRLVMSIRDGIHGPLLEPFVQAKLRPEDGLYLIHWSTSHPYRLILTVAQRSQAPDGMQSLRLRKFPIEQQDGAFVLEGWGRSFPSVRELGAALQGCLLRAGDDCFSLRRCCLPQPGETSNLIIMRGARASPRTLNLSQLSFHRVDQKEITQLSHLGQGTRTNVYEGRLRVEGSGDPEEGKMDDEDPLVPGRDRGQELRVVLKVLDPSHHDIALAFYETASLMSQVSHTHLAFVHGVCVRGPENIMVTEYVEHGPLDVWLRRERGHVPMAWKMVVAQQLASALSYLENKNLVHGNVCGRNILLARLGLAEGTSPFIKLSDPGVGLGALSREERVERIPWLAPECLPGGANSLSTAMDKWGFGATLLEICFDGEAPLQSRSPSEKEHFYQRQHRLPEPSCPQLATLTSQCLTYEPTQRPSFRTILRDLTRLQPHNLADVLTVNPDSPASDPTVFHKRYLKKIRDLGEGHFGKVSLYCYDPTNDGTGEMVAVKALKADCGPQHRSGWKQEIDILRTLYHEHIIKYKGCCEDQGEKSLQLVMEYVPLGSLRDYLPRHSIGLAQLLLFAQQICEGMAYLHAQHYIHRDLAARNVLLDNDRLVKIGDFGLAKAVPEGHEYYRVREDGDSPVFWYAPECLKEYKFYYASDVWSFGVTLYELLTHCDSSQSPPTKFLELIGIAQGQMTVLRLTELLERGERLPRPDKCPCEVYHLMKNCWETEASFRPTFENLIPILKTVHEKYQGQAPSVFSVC

## O=C1NCCn2c(-c3c(F)cccc3F)nc(Nc3ccc(C(=O)N4CCOCC4)cc3)c21 [US20240246984, Compound 2.]
[1]
  IC50: 1.9 nM
[2]
  IC50: 0.2 nM
